From patent publication US20250270222A1, “AP2 ASSOCIATED KINASE 1 INHIBITORS AND USES THEREOF” (Satellos Bioscience Inc., priority 2023, published 2025)
pIC50: −log10 of the molar value.

Legend:
Type in all cases: biochemical
[1] = target: GAK (amino acids Q25-N335) (Homo sapiens (Human), UniProt O14976); assay: GAK pSENs assay
Method: (§1) The recombinant proteins were independently expressed in Esherichia coli BL21(DE3) cells cultured in Luria-Bertani (LB) medium until OD600 reached 0.6-0.8, then cooled to 15° C., and supplemented with 0.5 mM isopropyl 1-thio-D-galactopyranoside (IPTG) induce protein expression 16 h. Cells were harvested and resuspended in lysis buffer (50 mM HEPES pH 7.5, 500 mM NaCl, 5 mM imidazole, 5% glycerol, 0.5 mM Tris (2-carboxyethyl) phosphine (TCEP), cOmplete Protease Inhibitor Tablet (Roche)) and lysed by microfluidics high pressure homogenizer (UH-06, Union-Biotech). Proteins were purified using Ni-Affinity chromatography (His FF column, Bestchrom) and eluted stepwise in binding buffer with 20-300 mM imidazole. Removal of the hexahistidine tag was performed at 4° C. overnight using recombinant TEV protease and reacted with BirA to obtain the corresponding biotinylated-AAK1. BIKE or GAK proteins. Further separated in the reverse Strep column (Strep-Tactin® XT, IBA). The Biotin elution sample was collected containing untagged biotinylated protein was then purified by Ion-exchange chromatography (Mono Q 10/100 GL, Cytiva) and Size-exclusion chromatography (HiLoad 16/600 Superdex 200 pg, Cytiva). The pure protein was stored in a storage buffer 50 mM HEPES (pH 7.5), 300 mM NaCl, 5% glycerol at −80° C. Protein were characterized by SDS-PAGE. LC-MS and aSEC.
This example describes one illustrative method for determining the IC50 of the compounds of the present invention against GAK (amino acids Q25-N335).

[2] = target: AAK1 (amino acids T27-A365) (Homo sapiens (Human), UniProt Q2M2I8); assay: AAK1 pSENs assay; settings: ratio of AAK1 pSENs activity to GAK pSENs activity
Summary of the method: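 Untagged, biotinylated E. coli-expressed AAK1 at 20 nM preincubated with compound 15 min at 25° C in HEPES pH 7.5 buffer with 10 mM MgCl2 and 1 mM DTT. Reaction started with AQT0759 and ATP, added as 30 uM and 70 uM solutions in equal volume.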

[3] = target: BIKE (amino acids S38-E345) (K320A, K321A) (Homo sapiens (Human), UniProt Q9NSY1, K320A/K321A); assay: BIKE pSENs assay
Method: as §1
BIKE protein was dissolved at 20 nM in 1× enzyme solution (50 mM HEPES pH7.5, 10 mM MgCl2, 1 mM DTT, 1% glycerol, 0.5 mM EGTA, 0.01% Briji35, 0.02% BSA) and 12.5 ul was incubated with 250 nl DMSO or 250 nl compound in DMSO at 25° C. for 15 min. The reaction was started by addition of 12.5 ul of 30 uM AQT0759 (Assayquant, CSKS-AQT0759B) and 40 uM ATP which were diluted in 1× substrate dilution buffer (50 mM HEPES pH7.5, 10 mM MgCl2. 1 mM DTT, 1% glycerol, 0.5 mM EGTA, 0.01% Briji35).

Chain of GAK (amino acids Q25-N335) (O14976 25-335): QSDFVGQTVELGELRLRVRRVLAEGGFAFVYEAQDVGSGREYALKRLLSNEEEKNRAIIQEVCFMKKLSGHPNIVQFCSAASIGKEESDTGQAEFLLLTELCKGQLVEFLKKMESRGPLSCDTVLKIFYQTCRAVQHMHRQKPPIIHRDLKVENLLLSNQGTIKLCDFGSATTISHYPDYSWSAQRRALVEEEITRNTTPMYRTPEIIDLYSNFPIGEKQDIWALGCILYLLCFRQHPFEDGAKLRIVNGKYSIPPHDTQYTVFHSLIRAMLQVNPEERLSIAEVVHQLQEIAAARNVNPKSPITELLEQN
Chain of BIKE (amino acids S38-E345) (K320A, K321A) (Q9NSY1 38-345 K320A/K321A): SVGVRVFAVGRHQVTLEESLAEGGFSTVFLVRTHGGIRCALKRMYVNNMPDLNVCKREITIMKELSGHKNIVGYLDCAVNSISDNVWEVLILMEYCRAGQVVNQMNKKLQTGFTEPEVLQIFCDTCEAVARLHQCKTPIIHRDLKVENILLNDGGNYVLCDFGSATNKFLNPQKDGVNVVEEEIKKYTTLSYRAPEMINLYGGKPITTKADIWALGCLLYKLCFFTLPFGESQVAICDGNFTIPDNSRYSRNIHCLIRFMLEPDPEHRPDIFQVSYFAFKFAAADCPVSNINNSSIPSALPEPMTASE
Chain of AAK1 (amino acids T27-A365) (Q2M2I8 27-365): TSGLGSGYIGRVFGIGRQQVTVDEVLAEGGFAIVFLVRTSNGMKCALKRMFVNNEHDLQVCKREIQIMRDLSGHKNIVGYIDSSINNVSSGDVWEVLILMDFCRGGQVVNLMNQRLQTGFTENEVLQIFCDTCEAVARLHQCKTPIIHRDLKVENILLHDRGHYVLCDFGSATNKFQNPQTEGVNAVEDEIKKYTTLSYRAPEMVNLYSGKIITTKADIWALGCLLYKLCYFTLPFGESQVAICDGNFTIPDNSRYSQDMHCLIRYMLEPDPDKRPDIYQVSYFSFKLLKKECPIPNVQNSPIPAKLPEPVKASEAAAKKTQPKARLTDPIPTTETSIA

pIC50 [1] | AAK1:GAK pSENs Selectivity [2] | pIC50 [3] | Structure (SMILES)
< 5.82 | B (B: 0.016-0.075) | < 5.82 | O=C1NCC[C@H]1OC(=O)N1CCN(c2ccn3ncc(-c4cccnc4OC4CC4)c3n2)CC1 [Compound I-23, [(3R)-2-oxopyrrolidin-3-yl]-4-[3-[2-(cyclopropoxy)-3-pyridyl]pyrazolo[1,5-a]pyrimidin-5-yl]piperazine-1-carboxylate]
< 5.82 | B (B: 0.016-0.075) | < 5.82 | N#C[C@@H]1CN(c2ccn3ncc(-c4cccnc4OC4CC4)c3n2)CCN1C(=O)O[C@@H]1CNC(=O)C1 [Compound I-41, (S)-5-Oxopyrrolidin-3-yl (S)-2-cyano-4-(3-(2-cyclopropoxypyridin-3-yl)pyrazolo[1,5-a]pyrimidin-5-yl)piperazine-1-carboxylate]
– | B (B: 0.016-0.075) | < 5.82 | CC(C)Oc1ncccc1-c1cnn2ccc(N3CCN(C(=O)O[C@@]4(C)CCNC4)CC3)nc12 [Compound I-21, [(3S)-3-Methylpyrrolidin-3-yl]4-[3-(2-isopropoxy-3-pyridyl)pyrazolo[1,5-a]pyrimidin-5-yl]piperazine-1-carboxylate]
< 5.82 | B (B: 0.016-0.075) | < 5.82 | NC(=O)[C@@H]1CN(c2ccn3ncc(-c4cccnc4OC4CC4)c3n2)CCN1C(=O)O[C@@H]1CNC(=O)C1 [Compound I-41-6, (S)-5-Oxopyrrolidin-3-yl-(S)-2-carbamoyl-4-(3-(2-cyclopropoxypyridin-3-yl)pyrazolo[1,5-a]pyrimidin-5-yl)piperazine-1-carboxylate]
< 5.82 | D (D: 0.16-1.00) | < 5.82 | CC(C)(C)OC(=O)N1CC(Nc2ncccc2-c2cnn3ccc(N4CCN(C(=O)O[C@@H]5CNC(=O)C5)CC4)nc23)C1 [Compound I-48]
< 5.82 | A (A: ≤0.015) | – | COc1ncccc1-c1cnn2ccc(N3CCN(C(=O)O[C@H]4CO[C@H]5OCC[C@H]54)CC3)nc12 [Compound I-65, (3R,3aS,6aR)-hexahydrofuro[2,3-b]furan-3-yl 4-(3-(2-methoxypyridin-3-yl)pyrazolo[1,5-a]pyrimidin-5-yl)piperazine-1-carboxylate]
< 5.82 | A (A: ≤0.015) | – | O=C1C[C@H](OC(=O)N2CCN(c3ccn4ncc(-c5cccnc5OC5COC5)c4n3)CC2)CN1 [Compound I-25, [(3S)-5-Oxopyrrolidin-3-yl]4-[3-[2-(oxetan-3-yloxy)-3-pyridyl]pyrazolo[1,5-a]pyrimidin-5-yl]piperazine-1-carboxylate]
– | – | < 5.82 | O=C1C[C@H](OC(=O)N2CCN(c3ccn4ncc(-c5cccnc5NC5CNC5)c4n3)CC2)CN1 [Compound I-49, (S)-5-oxopyrrolidin-3-yl 4-(3-(2-(azetidin-3-ylamino)pyridin-3-yl)pyrazolo[1,5a]pyrimidin-5-yl)piperazine-1-carboxylate]
< 5.82 | A (A: ≤0.015) | – | O=C(O[C@H]1CC(=O)N(C2CCNCC2)C1)N1CCN(c2ccn3ncc(-c4cccnc4OC4CC4)c3n2)CC1 [Compound I-32, [(3S)-5-Oxo-1-(4-piperidyl)pyrrolidin-3-yl]4-[3-[2-(cyclopropoxy)-3-pyridyl]pyrazolo[1,5-a]pyrimidin-5-yl]piperazine-1-carboxylate]
– | E (E: >1.00) | < 5.82 | O=C1C[C@H](OC(=O)N2CCN(c3ccn4ncc(-c5cccnc5NC5CCC5)c4n3)CC2)CN1 [Compound I-46, [(3S)-5-oxopyrrolidin-3-yl]4-[3-[2-(cyclobutylamino)-3-pyridyl]pyrazolo[1,5-a]pyrimidin-5-yl]piperazine-1-carboxylate]
< 5.82 | A (A: ≤0.015) | – | O=C1C[C@H](OC(=O)N2CCN(c3ccn4ncc(-c5cccnc5OC5CC5)c4n3)CC2)CN1CCO [Compound I-38, [(3S)-1-(2-Hydroxyethyl)-5-oxo-pyrrolidin-3-yl]-4-[3-[2-(cyclopropoxy)-3-pyridyl]pyrazolo[1,5-a]pyrimidin-5-yl]piperazine-1-carboxylate]
< 5.82 | A (A: ≤0.015) | – | CC1(OC(=O)N2CCN(c3ccn4ncc(-c5cccnc5OC5COC5)c4n3)CC2)COC1 [Compound I-18, (3-Methyloxetan-3-yl)-4-[3-[2-(oxetan-3-yloxy)-3-pyridyl]pyrazolo[1,5-a]pyrimidin-5-yl]piperazine-1-carboxylate]

The next lines start with the compound.

Structure (SMILES) | pIC50 [1] | AAK1:GAK pSENs Selectivity [2] | pIC50 [3]
O=C(O[C@H]1CO[C@H]2OCC[C@H]21)N1CCN(c2ccn3ncc(-c4ccccc4OC4CC4)c3n2)CC1 [Compound I-68, [(3aS,4R,6aR)-2,3,3a, 4,5,6a-hexahydrofuro[2,3-b]furan-4-yl]4-[3-[2-(cyclopropoxy)phenyl]pyrazolo[1,5-a]pyrimidin-5-yl]piperazine-1-carboxylate] | < 5.82 | A (A: ≤0.015) | < 5.82
O=C(O[C@H]1CO[C@H]2OCC[C@H]21)N1CCN(c2ccn3ncc(-c4cnccn4)c3n2)CC1 [Compound I-66, [(3aS,4R,6aR)-2,3,3a, 4,5,6a-hexahydrofuro[2,3-b]furan-4-yl]-4-(3-pyrazin-2-ylpyrazolo[1,5-a]pyrimidin-5-yl)piperazine-1-carboxylate] | – | D (D: 0.16-1.00) | < 5.82
C[C@@]1(OC(=O)N[C@H]2CCN(c3ccn4ncc(-c5cccnc5OC5CC5)c4n3)C2)CCNC1 [Compound I-57, (R)-3-methylpyrrolidin-3-yl ((S)-1-(3-(2-cyclopropoxypyridin-3-yl)pyrazolo[1,5-a]pyrimidin-5-yl)pyrrolidin-3-yl)carbamate] | – | C (C: 0.076-0.15) | < 5.82
CC1(OC(=O)N2CCN(c3ccn4ncc(-c5cccnc5OCC5COC5)c4n3)CC2)COC1 [Compound I-20] | – | D (D: 0.16-1.00) | < 5.82
CN1C[C@@H](OC(=O)N2CCN(c3ccn4ncc(-c5cccnc5OC5CC5)c4n3)CC2)CC1=O [Compound I-34] | < 5.82 | A (A: ≤0.015) | –
CN1CC[C@@](C)(OC(=O)N2CCN(c3ccn4ncc(-c5cccnc5OC5CC5)c4n3)CC2)C1 [Compound I-50, [(3R)-1,3-dimethylpyrrolidin-3-yl]-4-[3-[2-(cyclopropoxy)-3-pyridyl]pyrazolo[1,5-a]pyrimidin-5-yl]piperazine-1-carboxylate] | < 5.82 | A (A: ≤0.015) | –
CN1C[C@@H](OC(=O)N2CCN(c3nc4c(-c5cccnc5OC5CCCC5)cnn4cc3F)CC2)CC1=O [Compound I-121, [(3S)-1-methyl-5-oxo-pyrrolidin-3-yl]-4-[3-[2-(cyclopentoxy)-3-pyridyl]-6-fluoro-pyrazolo[1,5-a]pyrimidin-5-yl]piperazine-1-carboxylate] | < 5.82 | B (B: 0.016-0.075) | –
O=C(O[C@H]1CO[C@H]2OCC[C@H]21)N1CCN(c2ccn3ncc(-c4cccnc4OC4CC4)c3n2)CC1 [Compound I-27, [(3aS,4R,6aR)-2,3,3a, 4,5,6a-hexahydrofuro[2,3-b]furan-4-yl]-4-[3-[2-(cyclopropoxy)-3-pyridyl]pyrazolo[1,5-a]pyrimidin-5-yl]piperazine-1-carboxylate] | < 5.82 | A (A: ≤0.015) | –
CN1C[C@@H](OC(=O)N2CCN(c3ccn4ncc(-c5cccnc5OC5CCOC5)c4n3)CC2)CC1=O (stereo partly drawn) [Compound I-119] | < 5.82 | B (B: 0.016-0.075) | –
O=C1C[C@@H](OC(=O)N2CCN(c3ccn4ncc(-c5cccnc5OC5CC5)c4n3)CC2)CN1 [Compound I-10, [(3R)-5-Oxopyrrolidin-3-yl]-4-[3-[2-(cyclopropoxy)-3-pyridyl]pyrazolo[1,5-a]pyrimidin-5-yl]piperazine-1-carboxylate] | < 5.82 | A (A: ≤0.015) | –
